From publication PMC10339703 (Clinical and Translational Science, 2023)

Test system: healthy subjects
Assay: Safety and tolerability
Format: in vivo, human
[1] = MAD 25 mg tablet b.i.d. 14 days
[2] = MAD 50 mg tablet b.i.d. 14 days
[3] = MAD 100 mg tablet b.i.d. 14 days
[4] = MAD 200 mg tablet b.i.d. 14 days

## O[C@H]1CCCN[C@@H]1CCCn1cnc2c(Cl)c(Cl)ccc21 [Bersiporocin]
[1]
  ADRs, number of events: 25
  Abdominal discomfort (ADR), number of events: 1
  Abdominal discomfort (ADR), subjects n (%): 1 (16.7)
  Abdominal distension (ADR), number of events: 3
  Abdominal distension (ADR), subjects n (%): 2 (33.3)
  Abdominal pain (ADR), number of events: 5
  Abdominal pain (ADR), subjects n (%): 2 (33.3)
  Abdominal pain upper (ADR), subjects n (%): 0
  Acne (ADR), subjects n (%): 0
  Alanine aminotransferase increased (ADR), subjects n (%): 0
  Altered visual depth perception (ADR), subjects n (%): 0
  Balance disorder (ADR), subjects n (%): 0
  Bowel movement irregularity (ADR), number of events: 1
  Bowel movement irregularity (ADR), subjects n (%): 1 (16.7)
  Cold sweat (ADR), number of events: 1
  Cold sweat (ADR), subjects n (%): 1 (16.7)
  Constipation (ADR), subjects n (%): 0
  Decreased appetite (ADR), subjects n (%): 0
  Diarrhea (ADR), number of events: 3
  Diarrhea (ADR), subjects n (%): 2 (33.3)
  Dizziness (ADR), subjects n (%): 0
  Dry mouth (ADR), subjects n (%): 0
  Dysgeusia (ADR), subjects n (%): 0
  Eructation (ADR), subjects n (%): 0
  Esophageal pain (ADR), subjects n (%): 0
  Euphoric mood (ADR), subjects n (%): 0
  Feces discolored (ADR), subjects n (%): 0
  Feces soft (ADR), subjects n (%): 0
  Feeling hot (ADR), number of events: 1
  Feeling hot (ADR), subjects n (%): 1 (16.7)
  Flatulence (ADR), subjects n (%): 0
  Gastroesophageal reflux disease (ADR), number of events: 2
  Gastroesophageal reflux disease (ADR), subjects n (%): 1 (16.7)
  Headache (ADR), subjects n (%): 0
  Hypoesthesia (ADR), subjects n (%): 0
  Impaired healing (ADR), subjects n (%): 0
  Malaise (ADR), number of events: 1
  Malaise (ADR), subjects n (%): 1 (16.7)
  Myalgia (ADR), subjects n (%): 0
  Nausea (ADR), number of events: 4
  Nausea (ADR), subjects n (%): 1 (16.7)
  Neutropenia (ADR), subjects n (%): 0
  Oropharyngeal pain (ADR), subjects n (%): 0
  Papule (ADR), subjects n (%): 0
  Pollakiuria (ADR), subjects n (%): 0
  Presyncope (ADR), subjects n (%): 0
  Proctalgia (ADR), subjects n (%): 0
  Salivary hypersecretion (ADR), number of events: 3
  Salivary hypersecretion (ADR), subjects n (%): 2 (33.3)
  Skin irritation (ADR), subjects n (%): 0
  Somnolence (ADR), subjects n (%): 0
  Subjects with ADRs, n (%): 4 (66.7)
  Transaminases increased (ADR), subjects n (%): 0
  Tremor (ADR), subjects n (%): 0
  Vomiting (ADR), subjects n (%): 0
[2]
  ADRs, number of events: 35
  Abdominal discomfort (ADR), subjects n (%): 0
  Abdominal distension (ADR), number of events: 1
  Abdominal distension (ADR), subjects n (%): 1 (16.7)
  Abdominal pain (ADR), number of events: 1
  Abdominal pain (ADR), subjects n (%): 1 (16.7)
  Abdominal pain upper (ADR), subjects n (%): 0
  Acne (ADR), subjects n (%): 0
  Alanine aminotransferase increased (ADR), number of events: 1
  Alanine aminotransferase increased (ADR), subjects n (%): 1 (16.7)
  Altered visual depth perception (ADR), number of events: 1
  Altered visual depth perception (ADR), subjects n (%): 1 (16.7)
  Balance disorder (ADR), subjects n (%): 0
  Bowel movement irregularity (ADR), subjects n (%): 0
  Cold sweat (ADR), subjects n (%): 0
  Constipation (ADR), number of events: 1
  Constipation (ADR), subjects n (%): 1 (16.7)
  Decreased appetite (ADR), subjects n (%): 0
  Diarrhea (ADR), number of events: 2
  Diarrhea (ADR), subjects n (%): 2 (33.3)
  Dizziness (ADR), number of events: 1
  Dizziness (ADR), subjects n (%): 1 (16.7)
  Dry mouth (ADR), number of events: 1
  Dry mouth (ADR), subjects n (%): 1 (16.7)
  Dysgeusia (ADR), number of events: 2
  Dysgeusia (ADR), subjects n (%): 2 (33.3)
  Eructation (ADR), subjects n (%): 0
  Esophageal pain (ADR), subjects n (%): 0
  Euphoric mood (ADR), number of events: 1
  Euphoric mood (ADR), subjects n (%): 1 (16.7)
  Feces discolored (ADR), number of events: 1
  Feces discolored (ADR), subjects n (%): 1 (16.7)
  Feces soft (ADR), subjects n (%): 0
  Feeling hot (ADR), subjects n (%): 0
  Flatulence (ADR), subjects n (%): 0
  Gastroesophageal reflux disease (ADR), number of events: 1
  Gastroesophageal reflux disease (ADR), subjects n (%): 1 (16.7)
  Headache (ADR), number of events: 5
  Headache (ADR), subjects n (%): 3 (50.0)
  Hypoesthesia (ADR), number of events: 1
  Hypoesthesia (ADR), subjects n (%): 1 (16.7)
  Impaired healing (ADR), subjects n (%): 0
  Malaise (ADR), subjects n (%): 0
  Myalgia (ADR), number of events: 2
  Myalgia (ADR), subjects n (%): 2 (33.3)
  Nausea (ADR), number of events: 6
  Nausea (ADR), subjects n (%): 4 (66.7)
  Neutropenia (ADR), subjects n (%): 0
  Oropharyngeal pain (ADR), number of events: 1
  Oropharyngeal pain (ADR), subjects n (%): 1 (16.7)
  Papule (ADR), subjects n (%): 0
  Pollakiuria (ADR), number of events: 1
  Pollakiuria (ADR), subjects n (%): 1 (16.7)
  Presyncope (ADR), subjects n (%): 0
  Proctalgia (ADR), subjects n (%): 0
  Salivary hypersecretion (ADR), subjects n (%): 0
  Skin irritation (ADR), subjects n (%): 0
  Somnolence (ADR), subjects n (%): 0
  Subjects with ADRs, n (%): 6 (100)
  Transaminases increased (ADR), subjects n (%): 0
  Tremor (ADR), subjects n (%): 0
  Vomiting (ADR), number of events: 5
  Vomiting (ADR), subjects n (%): 3 (50.0)
[3]
  ADRs, number of events: 32
  Abdominal discomfort (ADR), subjects n (%): 0
  Abdominal distension (ADR), number of events: 3
  Abdominal distension (ADR), subjects n (%): 2 (33.3)
  Abdominal pain (ADR), number of events: 8
  Abdominal pain (ADR), subjects n (%): 3 (50.0)
  Abdominal pain upper (ADR), number of events: 2
  Abdominal pain upper (ADR), subjects n (%): 2 (33.3)
  Acne (ADR), subjects n (%): 0
  Alanine aminotransferase increased (ADR), subjects n (%): 0
  Altered visual depth perception (ADR), subjects n (%): 0
  Balance disorder (ADR), subjects n (%): 0
  Bowel movement irregularity (ADR), subjects n (%): 0
  Cold sweat (ADR), subjects n (%): 0
  Constipation (ADR), number of events: 2
  Constipation (ADR), subjects n (%): 2 (33.3)
  Decreased appetite (ADR), subjects n (%): 0
  Diarrhea (ADR), number of events: 4
  Diarrhea (ADR), subjects n (%): 3 (50.0)
  Dizziness (ADR), subjects n (%): 0
  Dry mouth (ADR), subjects n (%): 0
  Dysgeusia (ADR), subjects n (%): 0
  Eructation (ADR), subjects n (%): 0
  Esophageal pain (ADR), number of events: 1
  Esophageal pain (ADR), subjects n (%): 1 (16.7)
  Euphoric mood (ADR), subjects n (%): 0
  Feces discolored (ADR), subjects n (%): 0
  Feces soft (ADR), number of events: 2
  Feces soft (ADR), subjects n (%): 2 (33.3)
  Feeling hot (ADR), subjects n (%): 0
  Flatulence (ADR), subjects n (%): 0
  Gastroesophageal reflux disease (ADR), subjects n (%): 0
  Headache (ADR), subjects n (%): 0
  Hypoesthesia (ADR), subjects n (%): 0
  Impaired healing (ADR), number of events: 1
  Impaired healing (ADR), subjects n (%): 1 (16.7)
  Malaise (ADR), subjects n (%): 0
  Myalgia (ADR), subjects n (%): 0
  Nausea (ADR), number of events: 4
  Nausea (ADR), subjects n (%): 3 (50.0)
  Neutropenia (ADR), subjects n (%): 0
  Oropharyngeal pain (ADR), subjects n (%): 0
  Papule (ADR), number of events: 1
  Papule (ADR), subjects n (%): 1 (16.7)
  Pollakiuria (ADR), subjects n (%): 0
  Presyncope (ADR), number of events: 1
  Presyncope (ADR), subjects n (%): 1 (16.7)
  Proctalgia (ADR), subjects n (%): 0
  Salivary hypersecretion (ADR), subjects n (%): 0
  Skin irritation (ADR), number of events: 1
  Skin irritation (ADR), subjects n (%): 1 (16.7)
  Somnolence (ADR), subjects n (%): 0
  Subjects with ADRs, n (%): 6 (100)
  Transaminases increased (ADR), subjects n (%): 0
  Tremor (ADR), subjects n (%): 0
  Vomiting (ADR), number of events: 2
  Vomiting (ADR), subjects n (%): 1 (16.7)
[4]
  ADRs, number of events: 58
  Abdominal discomfort (ADR), subjects n (%): 0
  Abdominal distension (ADR), number of events: 5
  Abdominal distension (ADR), subjects n (%): 3 (50.0)
  Abdominal pain (ADR), number of events: 14
  Abdominal pain (ADR), subjects n (%): 3 (50.0)
  Abdominal pain upper (ADR), subjects n (%): 0
  Acne (ADR), number of events: 1
  Acne (ADR), subjects n (%): 1 (16.7)
  Alanine aminotransferase increased (ADR), subjects n (%): 0
  Altered visual depth perception (ADR), subjects n (%): 0
  Balance disorder (ADR), number of events: 1
  Balance disorder (ADR), subjects n (%): 1 (16.7)
  Bowel movement irregularity (ADR), subjects n (%): 0
  Cold sweat (ADR), subjects n (%): 0
  Constipation (ADR), subjects n (%): 0
  Decreased appetite (ADR), subjects n (%): 0
  Diarrhea (ADR), number of events: 7
  Diarrhea (ADR), subjects n (%): 4 (66.7)
  Dizziness (ADR), number of events: 2
  Dizziness (ADR), subjects n (%): 2 (33.3)
  Dry mouth (ADR), subjects n (%): 0
  Dysgeusia (ADR), subjects n (%): 0
  Eructation (ADR), number of events: 1
  Eructation (ADR), subjects n (%): 1 (16.7)
  Esophageal pain (ADR), subjects n (%): 0
  Euphoric mood (ADR), subjects n (%): 0
  Feces discolored (ADR), subjects n (%): 0
  Feces soft (ADR), subjects n (%): 0
  Feeling hot (ADR), subjects n (%): 0
  Flatulence (ADR), number of events: 1
  Flatulence (ADR), subjects n (%): 1 (16.7)
  Gastroesophageal reflux disease (ADR), subjects n (%): 0
  Headache (ADR), number of events: 7
  Headache (ADR), subjects n (%): 3 (50.0)
  Hypoesthesia (ADR), subjects n (%): 0
  Impaired healing (ADR), subjects n (%): 0
  Malaise (ADR), subjects n (%): 0
  Myalgia (ADR), subjects n (%): 0
  Nausea (ADR), number of events: 12
  Nausea (ADR), subjects n (%): 5 (83.3)
  Neutropenia (ADR), subjects n (%): 0
  Oropharyngeal pain (ADR), subjects n (%): 0
  Papule (ADR), subjects n (%): 0
  Pollakiuria (ADR), subjects n (%): 0
  Presyncope (ADR), subjects n (%): 0
  Proctalgia (ADR), number of events: 2
  Proctalgia (ADR), subjects n (%): 1 (16.7)
  Salivary hypersecretion (ADR), subjects n (%): 0
  Skin irritation (ADR), subjects n (%): 0
  Somnolence (ADR), number of events: 2
  Somnolence (ADR), subjects n (%): 1 (16.7)
  Subjects with ADRs, n (%): 5 (83.3)
  Transaminases increased (ADR), subjects n (%): 0
  Tremor (ADR), number of events: 1
  Tremor (ADR), subjects n (%): 1 (16.7)
  Vomiting (ADR), number of events: 2
  Vomiting (ADR), subjects n (%): 2 (33.3)
MAD study, bersiporocin group
  ADRs, number of events: 150
  subjects with ADRs, number: 21
  subjects with ADRs, percentage: 88%
